Measured values reported in patent US11173151B2, “Substituted triazole derivatives and uses thereof” (BAYER AKTIENGESELLSCHAFT, priority 2017, dated 2021).

Legend:
human V2 receptor = target: T1, human V2 receptor (Homo sapiens, UniProt P30518); assay: Cellular in vitro assay for determining vasopressin receptor activity, V2 receptor cell line (CHO, CRE-luciferase); format: cell-based; conditions: CHO cell line transfected with human V2 receptor; [Arg8]-vasopressin at EC50 concentration, 3 hours; read-out: IC50 hV2
T1 construct: expressed in transfected cells; host or cells: CHO K1 (ATCC) expressing firefly luciferase under a CRE-responsive promoter
T1 sequence (P30518 whole entry): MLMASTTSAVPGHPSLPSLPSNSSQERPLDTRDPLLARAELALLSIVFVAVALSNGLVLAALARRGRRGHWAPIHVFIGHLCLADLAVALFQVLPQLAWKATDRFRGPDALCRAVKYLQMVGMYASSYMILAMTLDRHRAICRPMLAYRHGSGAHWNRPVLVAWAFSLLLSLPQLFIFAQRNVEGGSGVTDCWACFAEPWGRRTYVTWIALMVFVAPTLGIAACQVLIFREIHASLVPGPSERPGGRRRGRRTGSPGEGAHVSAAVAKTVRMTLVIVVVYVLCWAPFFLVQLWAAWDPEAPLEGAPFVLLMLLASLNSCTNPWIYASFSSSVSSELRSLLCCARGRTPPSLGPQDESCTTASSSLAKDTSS
Procedure: (§1) B-1. Cellular In Vitro Assay for Determining Vasopressin Receptor Activity
(§2) The identification of agonists and antagonists of the V1a and V2 vasopressin receptors from humans, rats and dogs as well as the quantification of the activity of the compounds of the invention is carried out using recombinant cell lines. These cell lines originally derive from a hamster's ovary epithelial cell (Chinese Hamster Ovary, CHO K1, ATCC: American Type Culture Collection, Manassas, Va. 20108, USA). The test cell lines constitutively express the human, rat or dog V1a or V2 receptors. In case of the Gαq-coupled V1a receptors, cells are also stably transfected with a modified form of the calcium-sensitive photoproteins aequorin (human and rat V1a) or obelin (dog V1a), which, after reconstitution with the cofactor coelenterazine, emit light when there are increases in free calcium concentrations [Rizzuto R, Simpson A W, Brini M, Pozzan T, Nature 358, 325-327 (1992); Illarionov B A, Bondar V S, Illarionova V A, Vysotski E S, Gene 153 (2), 273-274 (1995)]. The resulting vasopressin receptor cells react to stimulation of the recombinantly expressed V1a receptors by intracellular release of calcium ions, which can be quantified by the resulting photoprotein luminescence. The Gs-coupled V2 receptors are stably transfected into cell lines expressing the gene for firefly luciferase under control of a CRE-responsible promoter. Activation of V2 receptors induces the activation of the CRE-responsive promoter via cAMP increase, thereby inducing the expression of firefly luciferase. The light emitted by photoproteins of V1a cell lines as well as the light emitted by firefly luciferase of V2 cell lines corresponds to the activation or inhibition of the respective vasopressin receptor. The bioluminescence of the cell lines is detected using a suitable luminometer [Milligan G, Marshall F, Rees S, Trends in Pharmacological Sciences 17, 235-237 (1996)].
Vasopressin V2 Receptor Cell Lines:
On the day before the assay, the cells are plated out in culture medium (DMEM/F12, 2% FCS, 2 mM glutamine, 10 mM HEPES) in 384-well microtiter plates and kept in a cell incubator (96% humidity, 5% v/v CO2, 37° C.). On the day of the assay, test compounds in various concentrations and the agonist [Arg^8]-vasopressin at EC50 concentration are added together to the wells, and plates are incubated for 3 hours in a cell incubator. Upon addition of the cell lysis reagent Triton™ and the substrate luciferin, luminescence of firefly luciferase is measured in a luminometer.
(§3) Table 1A below lists individual IC50 values for the compounds of the invention (including racemic mixtures as well as separated enantiomers) that were obtained from cell lines transfected with the human V1a or V2 receptor: […]

human V1a receptor = target: T2, human V1a receptor (Homo sapiens, UniProt P37288); assay: Cellular in vitro assay for determining vasopressin receptor activity, V1a receptor cell line (CHO, aequorin luminescence); format: cell-based; conditions: for IC50: CHO cell line transfected with human V1a receptor, [Arg]-vasopressin at EC50 concentration, read-out: IC50 hV1a; for ratio IC50 hV2/hV1a: selectivity ratio IC50 hV2 / IC50 hV1a
T2 construct: expressed in transfected cells; host or cells: CHO K1 (ATCC), also stably transfected with a modified aequorin
T2 sequence (P37288 whole entry): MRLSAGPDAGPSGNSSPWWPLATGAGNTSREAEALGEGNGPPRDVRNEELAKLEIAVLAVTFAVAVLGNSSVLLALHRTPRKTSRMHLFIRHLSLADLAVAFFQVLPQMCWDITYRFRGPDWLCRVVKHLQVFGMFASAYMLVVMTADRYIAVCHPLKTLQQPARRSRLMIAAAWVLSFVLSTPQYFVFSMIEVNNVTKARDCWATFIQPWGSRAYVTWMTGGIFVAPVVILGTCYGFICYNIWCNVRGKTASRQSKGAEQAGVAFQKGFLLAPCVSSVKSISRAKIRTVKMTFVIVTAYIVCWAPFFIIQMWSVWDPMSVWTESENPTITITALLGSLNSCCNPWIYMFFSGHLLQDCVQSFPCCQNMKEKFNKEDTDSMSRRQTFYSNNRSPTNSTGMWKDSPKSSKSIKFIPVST
Procedure: as §1, §2
Vasopressin V1a Receptor Cell Lines:
On the day before the assay, the cells are plated out in culture medium (DMEM/F12, 2% FCS, 2 mM glutamine, 10 mM HEPES, 5 μg/ml coelenterazine) in 384-well microtiter plates and kept in a cell incubator (96% humidity, 5% v/v CO2, 37° C.). On the day of the assay, test compounds in various concentrations are placed for 10 minutes in the wells of the microtiter plate before the agonist [Arg]-vasopressin at EC50 concentration is added. The resulting light signal is measured immediately in a luminometer.
as §3

| SMILES | IC50 (human V2 receptor) | IC50 (human V1a receptor) | ratio IC50 hV2/hV1a (human V1a receptor) |
| --- | --- | --- | --- |
| CC1CCCCC1NC(=O)c1ccccc1-n1cnc(Cn2nc(-c3ccc(Cl)cc3)n(C[C@H](O)C(F)(F)F)c2=O)n1 (mixture of isomers) [Example 319, 2-[3-({3-(4-Chlorophenyl)-5-oxo-4-[(2S)-3,3,3-trifluoro-2-hydroxypropyl]-4,5-dihydro-1H-1,2,4-triazol-1-yl}methyl)-1H-1,2,4-triazol-1-yl]-N-(2-methylcyclohexyl)benzamide] | 325 nM | 3.55 nM | 91.5 |
| CC1CCC(C)N1C(=O)c1ccccc1-n1cnc(Cn2nc(-c3ccc(Cl)cc3)n(C[C@H](O)C(F)(F)F)c2=O)n1 (mixture of isomers) [Example 328, 5-(4-Chlorophenyl)-2-[(1-{2-[(2,5-dimethylpyrrolidin-1-yl)carbonyl]phenyl}-1H-1,2,4-triazol-3-yl)methyl]-4-[(2S)-3,3,3-trifluoro-2-hydroxypropyl]-2,4-dihydro-3H-1,2,4-triazol-3-one] | 2150 nM | 7.95 nM | 270.4 |
| CC1CCCC(C)N1C(=O)c1ccccc1-n1cnc(Cn2nc(-c3ccc(Cl)cc3)n(C[C@H](O)C(F)(F)F)c2=O)n1 (mixture of isomers) [Example 337, 5-(4-Chlorophenyl)-2-[(1-{2-[(2,6-dimethylpiperidin-1-yl)carbonyl]phenyl}-1H-1,2,4-triazol-3-yl)methyl]-4-[(2S)-3,3,3-trifluoro-2-hydroxypropyl]-2,4-dihydro-3H-1,2,4-triazol-3-one] | 1080 nM | 23.5 nM | 46.2 |
| CC(C)C(C)NC(=O)c1ccccc1-n1cnc(Cn2nc(-c3ccc(Cl)cc3)n(C[C@H](O)C(F)(F)F)c2=O)n1 (mixture of isomers) [Example 345, 2-[3-({3-(4-Chlorophenyl)-5-oxo-4-[(2S)-3,3,3-trifluoro-2-hydroxypropyl]-4,5-dihydro-1H-1,2,4-triazol-1-yl}methyl)-1H-1,2,4-triazol-1-yl]-N-[(2R)-3-methylbutan-2-yl]benzamide] | 119 nM | 3.2 nM | 37.2 |
| O=C(NC1CC1F)c1ccccc1-n1cnc(Cn2nc(-c3ccc(Cl)cc3)n(C[C@H](O)C(F)(F)F)c2=O)n1 (mixture of isomers) [Example 364, 2-[3-({3-(4-Chlorophenyl)-5-oxo-4-[(2S)-3,3,3-trifluoro-2-hydroxypropyl]-4,5-dihydro-1H-1,2,4-triazol-1-yl}methyl)-1H-1,2,4-triazol-1-yl]-N-(2-fluorocyclopropyl)benzamide] | 155 nM | 0.47 nM | 329.8 |
| O=C(NCC(O)C(F)(F)F)c1cccc(Cl)c1-n1cnc(Cn2nc(-c3ccc(Cl)cc3)n(C[C@H](O)C(F)(F)F)c2=O)n1 (mixture of isomers) [Example 367, 3-Chloro-2-[3-({3-(4-chlorophenyl)-5-oxo-4-[(2S)-3,3,3-trifluoro-2-hydroxypropyl]-4,5-dihydro-1H-1,2,4-triazol-1-yl}methyl)-1H-1,2,4-triazol-1-yl]-N-[3,3,3-trifluoro-2-hydroxypropyl]benzamide] | 260 nM | 45 nM | 5.8 |
| O=C(NCC(O)C(F)(F)F)c1cccc(Cl)c1-n1cnc(Cn2nc(-c3ccc(Cl)cc3)n(C[C@@H](O)C(F)(F)F)c2=O)n1 (mixture of isomers) [Example 368, 3-Chloro-2-[3-({3-(4-chlorophenyl)-5-oxo-4-[(2R)-3,3,3-trifluoro-2-hydroxypropyl]-4,5-dihydro-1H-1,2,4-triazol-1-yl}methyl)-1H-1,2,4-triazol-1-yl]-N-[3,3,3-trifluoro-2-hydroxypropyl]benzamide] | 2100 nM | 350 nM | 6.0 |

Next, values leading:

| IC50 (human V2 receptor) | IC50 (human V1a receptor) | ratio IC50 hV2/hV1a (human V1a receptor) | SMILES |
| --- | --- | --- | --- |
| 1540 nM | 3.3 nM | 468.2 | O=C(c1ccccc1-n1cnc(Cn2nc(-c3ccc(Cl)cc3)n(C[C@H](O)C(F)(F)F)c2=O)n1)N1CCC(O)C1 (mixture of isomers) [Example 298, 5-(4-Chlorophenyl)-2-{[1-(2-{[3-hydroxypyrrolidin-1-yl]carbonyl}phenyl)-1H-1,2,4-triazol-3-yl]methyl}-4-[(2S)-3,3,3-trifluoro-2-hydroxypropyl]-2,4-dihydro-3H-1,2,4-triazol-3-one] |
| 1500 nM | 8.3 nM | 180.7 | CC1CC(C)CN(C(=O)c2ccccc2-n2cnc(Cn3nc(-c4ccc(Cl)cc4)n(C[C@H](O)C(F)(F)F)c3=O)n2)C1 (mixture of isomers) [Example 326, 5-(4-Chlorophenyl)-2-[(1-{2-[(3,5-dimethylpiperidin-1-yl)carbonyl]phenyl}-1H-1,2,4-triazol-3-yl)methyl]-4-[(2S)-3,3,3-trifluoro-2-hydroxypropyl]-2,4-dihydro-3H-1,2,4-triazol-3-one] |
| 950 nM | 2.7 nM | 351.9 | CC1CCCN(C(=O)c2ccccc2-n2cnc(Cn3nc(-c4ccc(Cl)cc4)n(C[C@H](O)C(F)(F)F)c3=O)n2)C1 (mixture of isomers) [Example 351, 5-(4-Chlorophenyl)-2-{[1-(2-{[3-methylpiperidin-1-yl]carbonyl}phenyl)-1H-1,2,4-triazol-3-yl]methyl}-4-[(2S)-3,3,3-trifluoro-2-hydroxypropyl]-2,4-dihydro-3H-1,2,4-triazol-3-one] |
| 635 nM | 1.75 nM | 362.9 | CC1CCCN1C(=O)c1ccccc1-n1cnc(Cn2nc(-c3ccc(Cl)cc3)n(C[C@H](O)C(F)(F)F)c2=O)n1 (mixture of isomers) [Example 355, 5-(4-Chlorophenyl)-2-{[1-(2-{[2-methylpyrrolidin-1-yl]carbonyl}phenyl)-1H-1,2,4-triazol-3-yl]methyl}-4-[(2S)-3,3,3-trifluoro-2-hydroxypropyl]-2,4-dihydro-3H-1,2,4-triazol-3-one] |
| 710 nM | 15 nM | 47.3 | O=C(NC1CC1(F)F)c1cccc(Cl)c1-n1cnc(Cn2nc(-c3ccc(Cl)cc3)n(C[C@H](O)C(F)(F)F)c2=O)n1 (mixture of isomers) [Example 371, 3-Chloro-2-[3-({3-(4-chlorophenyl)-5-oxo-4-[(2S)-3,3,3-trifluoro-2-hydroxypropyl]-4,5-dihydro-1H-1,2,4-triazol-1-yl}methyl)-1H-1,2,4-triazol-1-yl]-N-[2,2-difluorocyclopropyl]benzamide] |
| 8600 nM | 295 nM | 29.2 | CC1CN(C(=O)c2cccc(Cl)c2-n2cnc(Cn3nc(-c4ccc(Cl)cc4)n(C[C@H](O)C(F)(F)F)c3=O)n2)CCO1 (mixture of isomers) [Example 377, 2-{[1-(2-Chloro-6-{[2-methylmorpholin-4-yl]carbonyl}phenyl)-1H-1,2,4-triazol-3-yl]methyl}-5-(4-chlorophenyl)-4-[(2S)-3,3,3-trifluoro-2-hydroxypropyl]-2,4-dihydro-3H-1,2,4-triazol-3-one] |
| 2050 nM | 120 nM | 17.1 | NC(=O)C1CCCN1C(=O)c1cccc(Cl)c1-n1cnc(Cn2nc(-c3ccc(Cl)cc3)n(C[C@H](O)C(F)(F)F)c2=O)n1 (mixture of isomers) [Example 378, 1-{3-Chloro-2-[3-({3-(4-chlorophenyl)-5-oxo-4-[(2S)-3,3,3-trifluoro-2-hydroxypropyl]-4,5-dihydro-1H-1,2,4-triazol-1-yl}methyl)-1H-1,2,4-triazol-1-yl]benzoyl}-prolinamide] |
